The values that follow come from PubChem BioAssay AID256 (DTP/NCI, 2004).

Values joined by “and” are separate entries in the source; they are usually repeats but may differ in a detail not shown here. Identical values can stand only once. Toxic doses and inconclusive results are not listed.

The test relates to CD2F1 mice, L1210 leukemia ip, survival T/C. As to the kind of experiment: NCI In Vivo Anticancer Drug Screen. Data for tumor model L1210 Leukemia (intraperitoneal) in CD2F1 (CDF1) mice. The conditions noted are these: higher = longer survival. In short, it runs like this: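 In this screen, transplantable tumors were grown in mice given either the compound or its vehicle. Results were expressed as the treated measurement relative to the control measurement.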

[1] abbreviates: endpoint: mean survival time, dose: 25.0 mg/kg/injection, schedule: Q01DX009 (ip), vehicle: saline with Tween-80.
[2] abbreviates: endpoint: mean survival time, dose: 25.0 mg/kg/injection, schedule: Q04DX003 (ip), vehicle: saline with Tween-80.
[3] abbreviates: endpoint: mean survival time, dose: 50.0 mg/kg/injection, schedule: Q01DX009 (ip), vehicle: saline with Tween-80.
The mark [4] stands for this setting: endpoint: mean survival time, dose: 50.0 mg/kg/injection, schedule: Q04DX003 (ip), vehicle: saline with Tween-80.
Setting [5] is: endpoint: mean survival time, dose: 100.0 mg/kg/injection, schedule: Q01DX009 (ip), vehicle: saline with Tween-80.
Setting [6] is: endpoint: mean survival time, dose: 100.0 mg/kg/injection, schedule: Q04DX003 (ip), vehicle: saline with Tween-80.
The mark [7] stands for this setting: endpoint: mean survival time, dose: 200.0 mg/kg/injection, schedule: Q01DX009 (ip), vehicle: saline with Tween-80.
The mark [8] stands for this setting: endpoint: mean survival time, dose: 200.0 mg/kg/injection, schedule: Q04DX003 (ip), vehicle: saline with Tween-80.
Setting [9] is: endpoint: mean survival time, dose: 400.0 mg/kg/injection, schedule: Q01DX009 (ip), vehicle: saline with Tween-80.
The mark [10] stands for this setting: endpoint: mean survival time, dose: 400.0 mg/kg/injection, schedule: Q04DX003 (ip), vehicle: saline with Tween-80.

As to `CCc1ncnc2cc(OCC3CO3)c(OC)cc12` (centres undefined), the T/C is 109 % of control (endpoint: median survival time, dose: 6.25 mg/kg/injection, schedule: Q01DX009 (ip), vehicle: saline with Tween-80); 112 % of control (endpoint: median survival time, dose: 6.25 mg/kg/injection, schedule: Q01DX009 (ip), vehicle: saline); 123 % of control (endpoint: median survival time, dose: 7.5 mg/kg/injection, schedule: Q01DX009 (ip), vehicle: suspension in saline); 154 % of control (endpoint: median survival time, dose: 10.0 mg/kg/injection, schedule: Q03DX003 (ip), vehicle: saline); 116 % of control (endpoint: median survival time, dose: 12.5 mg/kg/injection, schedule: Q01DX009 (ip), vehicle: saline with Tween-80); 121 % of control (endpoint: median survival time, dose: 12.5 mg/kg/injection, schedule: Q01DX009 (ip), vehicle: saline). Also, the T/C by setting is: (endpoint: median survival time, dose: 20.0 mg/kg/injection, schedule: Q01DX009 (ip), vehicle: other) 156 % of control; (endpoint: median survival time, dose: 40.0 mg/kg/injection, schedule: Q01DX009 (ip), vehicle: other) 166 % of control; (endpoint: median survival time, dose: 40.0 mg/kg/injection, schedule: Q04DX003 (ip), vehicle: other) 112 % of control; (endpoint: median survival time, dose: 50.0 mg/kg/injection, schedule: Q01DX009 (ip), vehicle: DMSO) 169 % of control; (endpoint: median survival time, dose: 50.0 mg/kg/injection, schedule: Q03DX003 (ip), vehicle: saline) 152 % of control and 169 % of control; (endpoint: median survival time, dose: 80.0 mg/kg/injection, schedule: Q01DX001 (ip), vehicle: other) 174 % of control. In addition, the T/C is, setting by setting: (endpoint: median survival time, dose: 80.0 mg/kg/injection, schedule: Q01DX001 (ip), vehicle: water) 178 % of control; (endpoint: median survival time, dose: 80.0 mg/kg/injection, schedule: Q04DX003 (ip), vehicle: other) 153 % of control; (endpoint: median survival time, dose: 120.0 mg/kg/injection, schedule: Q01DX001 (ip), vehicle: other) 182 % of control; (endpoint: median survival time, dose: 120.0 mg/kg/injection, schedule: Q01DX001 (ip), vehicle: water) 160 % of control; (endpoint: median survival time, dose: 120.0 mg/kg/injection, schedule: Q04DX003 (ip), vehicle: other) 150 % of control.

Consider `N#Cc1ccc([N+](=O)[O-])o1`, for which the T/C reads like this: (endpoint: mean survival time, dose: 12.5 mg/kg/injection, schedule: Q01DX009 (ip), vehicle: saline with Tween-80) 104 % of control; under setting [1], 101 % of control; under setting [2], 102 % of control; under setting [3], 92 % of control; under setting [4], 96 % of control.

With `CN(C)N=Nc1c(F)c(F)c(F)c(F)c1F`, the T/C was 98 % of control (endpoint: mean survival time, dose: 12.5 mg/kg/injection, schedule: Q01DX009 (ip), vehicle: other); 102 % of control (endpoint: mean survival time, dose: 25.0 mg/kg/injection, schedule: Q01DX009 (ip), vehicle: other); 106 % of control under setting [1]; 104 % of control (endpoint: mean survival time, dose: 50.0 mg/kg/injection, schedule: Q01DX009 (ip), vehicle: other); 104 % of control under setting [3]; 104 % of control (endpoint: mean survival time, dose: 100.0 mg/kg/injection, schedule: Q01DX009 (ip), vehicle: other). Moreover, the T/C reads like this: under setting [5], 107 % of control; (endpoint: mean survival time, dose: 200.0 mg/kg/injection, schedule: Q01DX009 (ip), vehicle: other) 115 % of control.

With `CCOC(=O)C(SC)(SC)C(=O)OCC`, the T/C (endpoint: mean survival time, dose: 100.0 mg/kg/injection, schedule: Q01DX001 (ip), vehicle: Klucel (hydroxypropylcellulose) (HPC)) is 106 % of control; the T/C (endpoint: mean survival time, dose: 200.0 mg/kg/injection, schedule: Q01DX001 (ip), vehicle: Klucel (hydroxypropylcellulose) (HPC)) was 109 % of control; the T/C (endpoint: mean survival time, dose: 400.0 mg/kg/injection, schedule: Q01DX001 (ip), vehicle: Klucel (hydroxypropylcellulose) (HPC)) is 103 % of control.

As to `CCN(CC)CCOC(=O)c1ccccc1Nc1cccc(C)c1`, the T/C reads like this: (endpoint: mean survival time, dose: 25.0 mg/kg/injection, schedule: Q01DX009 (ip), vehicle: saline) 89 % of control; (endpoint: mean survival time, dose: 50.0 mg/kg/injection, schedule: Q01DX009 (ip), vehicle: saline) 101 % of control; (endpoint: mean survival time, dose: 100.0 mg/kg/injection, schedule: Q01DX009 (ip), vehicle: saline) 97 % of control.

Turning to `O=NC1C2CCC(C2)C1Cl` (centres undefined), the T/C runs as follows: (endpoint: mean survival time, dose: 5.0 mg/kg/injection, schedule: Q01DX001 (ip), vehicle: saline) 98 % of control; (endpoint: mean survival time, dose: 10.0 mg/kg/injection, schedule: Q01DX001 (ip), vehicle: saline) 97 % of control; (endpoint: mean survival time, dose: 20.0 mg/kg/injection, schedule: Q01DX001 (ip), vehicle: saline) 95 % of control.

Regarding `CC#CC(=O)SCCNC(=O)CC(C)(C)C`, the T/C is, setting by setting: under setting [1], 96 % of control; under setting [2], 105 % of control; under setting [3], 96 % of control; under setting [4], 96 % of control; under setting [5], 95 % of control; under setting [6], 106 % of control. Besides, the T/C under setting [7] was 97 % of control and the T/C under setting [8] was 98 % of control.

With `CCCCC#CC1CCCC1` (tested in a mixture with another compound), the T/C runs as follows: under setting [3], 103 % of control; under setting [5], 100 % of control; under setting [7], 100 % of control.

In the case of `COc1ccc(Cl)cc1C(c1cc(Cl)ccc1OC)C(Cl)(Cl)Cl`, the T/C is, setting by setting: under setting [5], 97 % of control; under setting [6], 103 % of control; under setting [7], 109 % of control; under setting [8], 103 % of control; under setting [9], 104 % of control; under setting [10], 101 % of control.

Turning to `COC(=O)C1c2cc3c(c(O)c2CCC1(C)O)C(=O)c1c(O)cc2c(c1C3=O)OC1OC2(C)C(O)C(N(C)C)C1O` (centres undefined), the T/C reads like this: (endpoint: mean survival time, dose: 100.0 mg/kg/injection, schedule: Q01DX001 (ip), vehicle: saline) 103 % of control; (endpoint: mean survival time, dose: 200.0 mg/kg/injection, schedule: Q01DX001 (ip), vehicle: saline) 104 % of control; (endpoint: mean survival time, dose: 400.0 mg/kg/injection, schedule: Q01DX001 (ip), vehicle: saline) 104 % of control.

On to `CN(C)N=Nc1cc(C(F)(F)F)cc(C(F)(F)F)c1`, for which the T/C is 104 % of control under setting [1]; 101 % of control under setting [3]; 98 % of control under setting [5]; 95 % of control under setting [7]; 104 % of control under setting [9].

As for `CCOC(=O)c1c[nH]c2ccc3c(nc(C)n3C)c2c1=O`, the T/C runs as follows: (endpoint: median survival time, dose: 25.0 mg/kg/injection, schedule: Q01DX005 (ip), vehicle: Klucel (hydroxypropylcellulose) (HPC)) 98 % of control; (endpoint: median survival time, dose: 50.0 mg/kg/injection, schedule: Q01DX005 (ip), vehicle: Klucel (hydroxypropylcellulose) (HPC)) 100 % of control; (endpoint: median survival time, dose: 100.0 mg/kg/injection, schedule: Q01DX005 (ip), vehicle: Klucel (hydroxypropylcellulose) (HPC)) 108 % of control; (endpoint: median survival time, dose: 200.0 mg/kg/injection, schedule: Q01DX005 (ip), vehicle: Klucel (hydroxypropylcellulose) (HPC)) 112 % of control.

Turning to `Cc1oc([N+](=O)[O-])cc1C(=O)O`, the T/C runs as follows: under setting [6], 102 % of control; under setting [8], 102 % of control; under setting [10], 115 % of control.

In the case of `COC1=C(C)C(=O)C2=C(C1=O)C(COC(N)=O)C(=O)C1NC1CN2C` (centres undefined), the T/C (endpoint: mean survival time, dose: 4.7 mg/kg/injection, schedule: Q01DX001 (ip), vehicle: carboxymethylcellulose (CMC)) is 110 % of control.

As for `COc1ccc(/C=C(/C#N)c2ccccc2)cc1`, the T/C was 95 % of control under setting [6], 93 % of control under setting [8] and 90 % of control under setting [10].

In the case of `NC1CCCCC1.[O]=[Cr](=[O])([OH])[OH]`, the T/C runs as follows: (endpoint: mean survival time, dose: 6.25 mg/kg/injection, schedule: Q04DX003 (ip), vehicle: saline) 103 % of control; (endpoint: mean survival time, dose: 12.5 mg/kg/injection, schedule: Q04DX003 (ip), vehicle: saline) 98 % of control; (endpoint: mean survival time, dose: 25.0 mg/kg/injection, schedule: Q04DX003 (ip), vehicle: saline) 110 % of control.

As to `O=P1(O)Cc2ccccc2-c2ccccc21`, the T/C is 100 % of control under setting [5], 110 % of control under setting [7] and 98 % of control under setting [9].

For the compound `Cn1c2c(c3ccccc31)C(=O)CC2(C)C`, the T/C by setting is: under setting [4], 103 % of control; (endpoint: mean survival time, dose: 100.0 mg/kg/injection, schedule: Q01DX001 (ip), vehicle: saline with Tween-80) 93 % of control; under setting [6], 89 % of control; (endpoint: mean survival time, dose: 200.0 mg/kg/injection, schedule: Q01DX001 (ip), vehicle: saline with Tween-80) 98 % of control.

`O=C(CCOP(=O)(NCCCl)NCCCl)c1ccccc1`: the T/C is, setting by setting: (endpoint: median survival time, dose: 62.5 mg/kg/injection, schedule: Q01DX001 (ip), vehicle: saline with Tween-80) 117 % of control; (endpoint: median survival time, dose: 125.0 mg/kg/injection, schedule: Q01DX001 (ip), vehicle: saline with Tween-80) 166 % of control; (endpoint: median survival time, dose: 250.0 mg/kg/injection, schedule: Q01DX001 (ip), vehicle: saline with Tween-80) 165 % of control and 229 % of control; (endpoint: median survival time, dose: 500.0 mg/kg/injection, schedule: Q01DX001 (ip), vehicle: saline with Tween-80) 291 % of control.
